# Reference: the supplement of paper PMC7214452
# How the values were obtained:
# Test in all cases: normalized area under the dose-response curve (viability relative to DMSO control) (fraction); higher = less sensitive (more viable cells)
# Settings in all cases: exposure time not given
# AMO1 (cancer type: MM) = tested on: AMO1 (cancer type: MM)
# Protocol: (§1)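 25 myeloma and 15 non-Hodgkin lymphoma cell lines were exposed to each of 76 drugs as 7-point log dilutions (0.01 nM–10 µM) in duplicate. Viability was read with CellTiter-Glo and normalised to DMSO (0.1%) and staurosporine (10 µM) plate controls. Normalised AUC was calculated by the trapezoidal method relative to the negative control.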
# EJM (cancer type: MM) = tested on: EJM (cancer type: MM)
# Protocol: as §1
# FR4 (cancer type: MM) = tested on: FR4 (cancer type: MM)
# Protocol: as §1
# [1] = tested on: Granta-519 (cancer type: Mantle)
# Protocol: as §1
# [2] = tested on: HuT 78 (cancer type: TCL)
# Protocol: as §1
# JJN3 (cancer type: MM) = tested on: JJN3 (cancer type: MM)
# Protocol: as §1
# [3] = tested on: JVM2 (cancer type: Mantle)
# Protocol: as §1
# [4] = tested on: JeKo-1 (cancer type: Mantle)
# Protocol: as §1
# KMS11 (cancer type: MM) = tested on: KMS11 (cancer type: MM)
# Protocol: as §1
# [5] = tested on: KMS12PE (cancer type: MM)
# Protocol: as §1
# KMS18 (cancer type: MM) = tested on: KMS18 (cancer type: MM)
# Protocol: as §1
# KMS26 (cancer type: MM) = tested on: KMS26 (cancer type: MM)
# Protocol: as §1
# [6] = tested on: KMS28BM (cancer type: MM)
# Protocol: as §1
# [7] = tested on: KMS28PE (cancer type: MM)
# Protocol: as §1
# KMS34 (cancer type: MM) = tested on: KMS34 (cancer type: MM)
# Protocol: as §1
# [8] = tested on: Karpas-299 (cancer type: TCL)
# Protocol: as §1
# L363 (cancer type: MM) = tested on: L363 (cancer type: MM)
# Protocol: as §1
# LP1 (cancer type: MM) = tested on: LP1 (cancer type: MM)
# Protocol: as §1
# MM1.R (cancer type: MM) = tested on: MM1.R (cancer type: MM)
# Protocol: as §1
# MM1.S (cancer type: MM) = tested on: MM1.S (cancer type: MM)
# Protocol: as §1
# [9] = tested on: Mino (cancer type: Mantle)
# Protocol: as §1
# My-La (cancer type: TCL) = tested on: My-La (cancer type: TCL)
# Protocol: as §1
# [10] = tested on: NCI-H929 (cancer type: MM)
# Protocol: as §1
# [11] = tested on: OCI-LY1 (cancer type: DLBCL)
# Protocol: as §1
# [12] = tested on: OCI-LY19 (cancer type: DLBCL)
# Protocol: as §1
# [13] = tested on: OCI-LY3 (cancer type: DLBCL)
# Protocol: as §1
# [14] = tested on: OCI-MY5 (cancer type: MM)
# Protocol: as §1
# [15] = tested on: OCI-MY5/CRBN (cancer type: MM)
# Protocol: as §1
# [16] = tested on: OCI-MY5/Vec (cancer type: MM)
# Protocol: as §1
# [17] = tested on: OCI-MY7 (cancer type: MM)
# Protocol: as §1
# OPM2 (cancer type: MM) = tested on: OPM2 (cancer type: MM)
# Protocol: as §1
# [18] = tested on: RPMI 8226 (cancer type: MM)
# Protocol: as §1
# SKMM2 (cancer type: MM) = tested on: SKMM2 (cancer type: MM)
# Protocol: as §1
# [19] = tested on: SR-786 (cancer type: TCL)
# Protocol: as §1
# [20] = tested on: SU-DHL1 (cancer type: TCL)
# Protocol: as §1
# [21] = tested on: SU-DHL2 (cancer type: DLBCL)
# Protocol: as §1
# [22] = tested on: SU-DHL6 (cancer type: DLBCL)
# Protocol: as §1
# Se-Ax (cancer type: TCL) = tested on: Se-Ax (cancer type: TCL)
# Protocol: as §1
# U266 (cancer type: MM) = tested on: U266 (cancer type: MM)
# Protocol: as §1
# XG2 (cancer type: MM) = tested on: XG2 (cancer type: MM)
# Protocol: as §1
SMILES,normalized area under the dose-response curve (AMO1 (cancer type: MM)),normalized area under the dose-response curve (EJM (cancer type: MM)),normalized area under the dose-response curve (FR4 (cancer type: MM)),normalized area under the dose-response curve [1],normalized area under the dose-response curve [2],normalized area under the dose-response curve (JJN3 (cancer type: MM)),normalized area under the dose-response curve [3],normalized area under the dose-response curve [4],normalized area under the dose-response curve (KMS11 (cancer type: MM)),normalized area under the dose-response curve [5],normalized area under the dose-response curve (KMS18 (cancer type: MM)),normalized area under the dose-response curve (KMS26 (cancer type: MM)),normalized area under the dose-response curve [6],normalized area under the dose-response curve [7],normalized area under the dose-response curve (KMS34 (cancer type: MM)),normalized area under the dose-response curve [8],normalized area under the dose-response curve (L363 (cancer type: MM)),normalized area under the dose-response curve (LP1 (cancer type: MM)),normalized area under the dose-response curve (MM1.R (cancer type: MM)),normalized area under the dose-response curve (MM1.S (cancer type: MM)),normalized area under the dose-response curve [9],normalized area under the dose-response curve (My-La (cancer type: TCL)),normalized area under the dose-response curve [10],normalized area under the dose-response curve [11],normalized area under the dose-response curve [12],normalized area under the dose-response curve [13],normalized area under the dose-response curve [14],normalized area under the dose-response curve [15],normalized area under the dose-response curve [16],normalized area under the dose-response curve [17],normalized area under the dose-response curve (OPM2 (cancer type: MM)),normalized area under the dose-response curve [18],normalized area under the dose-response curve (SKMM2 (cancer type: MM)),normalized area under the dose-response curve [19],normalized area under the dose-response curve [20],normalized area under the dose-response curve [21],normalized area under the dose-response curve [22],normalized area under the dose-response curve (Se-Ax (cancer type: TCL)),normalized area under the dose-response curve (U266 (cancer type: MM)),normalized area under the dose-response curve (XG2 (cancer type: MM))
Cc1ccc(F)c(NC(=O)Nc2ccc(-c3cccc4[nH]nc(N)c34)cc2)c1 [Linifanib],0.567,0.526,0.441,0.861,0.63,0.603,0.25,0.759,0.65,0.73,0.56,0.709,0.646,0.722,0.33,0.651,0.605,0.348,0.58,0.55,0.735,0.852,0.59,0.995,0.987,0.983,0.468,0.55,0.57,0.5,0.587,0.165,0.667,0.721,0.519,0.981,0.955,0.627,0.549,0.547
CO[C@H]1C[C@@H]2CC[C@@H](C)[C@@](O)(O2)C(=O)C(=O)N2CCCC[C@H]2C(=O)O[C@H]([C@H](C)C[C@@H]2CC[C@@H](OCCO)[C@H](OC)C2)CC(=O)[C@H](C)/C=C(\C)[C@@H](O)[C@@H](OC)C(=O)[C@H](C)C[C@H](C)/C=C/C=C/C=C/1C [Everolimus],0.637,0.661,0.758,0.783,0.699,0.656,0.64,0.876,0.674,0.72,0.617,0.76,0.813,0.699,0.557,0.682,0.627,0.831,0.63,0.63,0.72,0.711,0.71,0.665,0.592,0.785,0.676,0.829,0.819,0.83,0.593,0.769,0.802,0.729,0.639,0.566,0.685,0.545,0.606,0.505
Nc1nc(F)nc2c1ncn2[C@@H]1O[C@H](COP(=O)(O)O)[C@@H](O)[C@@H]1O [Fludarabine phosphate],0.813,0.882,0.858,0.949,0.911,0.934,0.855,0.912,0.746,0.94,0.894,0.863,0.834,0.767,0.785,0.885,0.781,0.938,0.92,0.87,0.844,0.879,0.9,0.866,1.02,0.962,0.788,0.972,1,0.95,0.859,0.767,0.88,0.914,0.888,0.918,0.927,0.798,0.812,0.857
COc1cc2nccc(Oc3ccc(NC(=O)NC4CC4)c(Cl)c3)c2cc1C(N)=O [Lenvatinib],0.963,0.97,1.02,0.948,0.866,0.897,0.723,0.938,0.814,0.94,0.977,0.884,0.877,0.877,0.912,0.885,0.88,0.863,0.85,0.88,0.97,0.94,0.92,0.936,0.87,0.931,0.84,0.944,0.949,0.92,0.892,0.918,0.943,0.953,0.909,0.937,0.964,0.883,0.992,0.905
